Laboratory results reported in US9650361B2, “N-(pyridin-2-yl)pyrimidin-4-amine derivatives containing a sulfoximine group” (BAYER PHARAM AKTIENGESELLSCHAFT, priority 2012, dated 2017).
Read-outs that look alike come from different tables or passages of the source.

Tests used:
CDK2/CycE = biological target: T1, CDK2/CycE (Homo sapiens, UniProt P24941); test: CDK2/CycE kinase assay (Method 2a); format: biochemical; settings: 10 μM ATP
T1 construct: GST; purchased ProQinase GmbH (Freiburg, Germany); host or cells: insect cells (Sf9)
Source text: 2a. CDK2/CycE Kinase Assay:
CDK2/CycE-inhibitory activity of compounds of the present invention was quantified employing the CDK2/CycE TR-FRET assay as described in the following paragraphs:
Recombinant fusion proteins of GST and human CDK2 and of GST and human CycE, expressed in insect cells (Sf9) and purified by Glutathion-Sepharose affinity chromatography, were purchased from ProQinase GmbH (Freiburg, Germany) As substrate for the kinase reaction biotinylated peptide biotin-Ttds-YISPLKSPYKISEG (C-terminus in amid form) was used which can be purchased e.g. form the company JERINI Peptide Technologies (Berlin, Germany).
For the assay 50 nl of a 100 fold concentrated solution of the test compound in DMSO was pipetted into a black low volume 384 well microtiter plate (Greiner Bio-One, Frickenhausen, Germany), 2 μl of a solution of CDK2/CycE in aqueous assay buffer [50 mM Tris/HCl pH 8.0, 10 mM MgCl2, 1.0 mM dithiothreitol, 0.1 mM sodium ortho-vanadate, 0.01% (v/v) Nonidet-P40 (Sigma)] were added and the mixture was incubated for 15 min at 22° C. to allow pre-binding of the test compounds to the enzyme before the start of the kinase reaction. Then the kinase reaction was started by the addition of 3 μl of a solution of adenosine-tri-phosphate (ATP, 16.7 μM=>final conc. in the 5 μl assay volume is 10 μM) and substrate (1.25 μM=>final conc. in the 5 μl assay volume is 0.75 μM) in assay buffer and the resulting mixture was incubated for a reaction time of 25 min at 22° C. The concentration of CDK2/CycE was adjusted depending of the activity of the enzyme lot and was chosen appropriate to have the assay in the linear range, typical concentrations were in the range of 130 ng/ml. The reaction was stopped by the addition of 5 μl of a solution of TR-FRET detection reagents (0.2 μM streptavidine-XL665 [Cisbio Bioassays, Codolet, France] and 1 nM anti-RB(pSer807/pSer811)-antibody from BD Pharmingen [#558389] and 1.2 nM LANCE EU-W1024 labeled anti-mouse IgG antibody [Perkin-Elmer, product no. AD0077]) in an aqueous EDTA-solution (100 mM EDTA, 0.2% (w/v) bovine serum albumin in 100 mM HEPES/NaOH pH 7.0).
The resulting mixture was incubated 1 h at 22° C. to allow the formation of complex between the phosphorylated biotinylated peptide and the detection reagents. Subsequently the amount of phosphorylated substrate was evaluated by measurement of the resonance energy transfer from the Eu-chelate to the streptavidine-XL. Therefore, the fluorescence emissions at 620 nm and 665 nm after excitation at 350 nm was measured in a TR-FRET reader, e.g. a Rubystar (BMG Labtechnologies, Offenburg, Germany) or a Viewlux (Perkin-Elmer). The ratio of the emissions at 665 nm and at […] was taken as the measure for the amount of phosphorylated substrate. The data were normalised (enzyme reaction without inhibitor=0% inhibition, all other assay components but no enzyme=100% inhibition).

NCI-H460 cells = test: Proliferation assay, NCI-H460 (Method 3); format: cell-based, human; settings: 4 days, crystal violet, read-out: Inhibition of NCI-H460 cell proliferation IC50
Protocol: (§1) Cultivated tumour cells (HeLa, human cervical tumour cells, ATCC CCL-2; NCI-H460, human non-small cell lung carcinoma cells, ATCC HTB-177; A2780, human ovarian carcinoma cells, ECACC #93112519; DU 145, hormone-independent human prostate carcinoma cells, ATCC HTB-81; HeLa-MaTu-ADR, multidrug-resistant human cervical carcinoma cells, EPO-GmbH Berlin; Caco-2, human colorectal carcinoma cells, ATCC HTB-37; B16F10, mouse melanoma cells, ATCC CRL-6475) were plated at a density of 5,000 cells/well (DU145, HeLa-MaTu-ADR), 3,000 cells/well (NCI-H460, HeLa), 2,500 cells/well (A2780), 1,500 cells/well (Caco-2), or 1,000 cells/well (B16F10) in a 96-well multititer plate in 200 μL of their respective growth medium supplemented 10% fetal calf serum. After 24 hours, the cells of one plate (zero-point plate) were stained with crystal violet (see below), while the medium of the other plates was replaced by fresh culture medium (200 μl), to which the test substances were added in various concentrations (0 μM, as well as in the range of 0.001-10 μM; the final concentration of the solvent dimethyl sulfoxide was 0.5%). The cells were incubated for 4 days in the presence of test substances. Cell proliferation was determined by staining the cells with crystal violet: the cells were fixed by adding 20 μl/measuring point of an 11% glutaric aldehyde solution for 15 minutes at room temperature. After three washing cycles of the fixed cells with water, the plates were dried at room temperature. The cells were stained by adding 100 μl/measuring point of a 0.1% crystal violet solution (pH 3.0). After three washing cycles of the stained cells with water, the plates were dried at room temperature. The dye was dissolved by adding 100 μl/measuring point of a 10% acetic acid solution. The extinction was determined by photometry at a wavelength of 595 nm. The change of cell number, in percent, was calculated by normalization of the measured values to the extinction values of the zero-point plate (=0%) and the extinction of the untreated (0 μm) cells (=100%). The IC50 values (inhibitory concentration at 50% of maximal effect) were determined by means of a 4 parameter fit.

A2780 cells = test: Proliferation assay, A2780 (Method 3); format: cell-based, human; settings: 4 days, crystal violet, read-out: Inhibition of A2780 cell proliferation IC50
Protocol: as §1

Structure (SMILES) | IC50 (CDK2/CycE) | IC50 (NCI-H460 cells; Homo sapiens, NCI-H460, 96 h) | IC50 (A2780 cells; Homo sapiens, A2780, 96 h) | IC50 (NCI-H460 cells) | IC50 (A2780 cells)
COc1cc(F)ccc1-c1cc(Nc2cc(CS(C)(=N)=O)cc(C)n2)ncn1 (single isomer, unassigned) [Example 8, 6-(4-Fluoro-2-methoxyphenyl)-N-{6-methyl-4-[(S-methylsulfonimidoyl)methyl]pyridin-2-yl}pyrimidin-4-amine] | 400 nM | 319 nM | 36 nM | – | –
COc1cc(F)ccc1-c1cc(Nc2cc(CS(C)(=N)=O)ccn2)ncn1 (single isomer, unassigned) [Example 2, 6-(4-Fluoro-2-methoxyphenyl)-N-{4-[(S-methylsulfonimidoyl)methyl]pyridin-2-yl}pyrimidin-4-amine] | 1300 nM | – | 193 nM | – | –
COc1cc(F)ccc1-c1cc(Nc2cc(CS(C)(=N)=O)cc(Cl)n2)ncn1 (single isomer, unassigned) [Example 6, N-{6-Chloro-4-[(S-methylsulfonimidoyl)methyl]pyridin-2-yl}-6-(4-fluoro-2-methoxyphenyl)pyrimidin-4-amine] | 94 nM | – | – | 192 nM | 39 nM
COc1cc(F)ccc1-c1cc(Nc2cc(CS(C)(=N)=O)cc(Cl)n2)ncn1 (racemic) [Example 4, (rac)-N-{6-Chloro-4-[(S-methylsulfonimidoyl)methyl]pyridin-2-yl}-6-(4-fluoro-2-methoxyphenyl)pyrimidin-4-amine] | 160 nM | 372 nM | 62 nM | – | –
COc1cc(F)ccc1-c1cc(Nc2cc(CS(C)(=N)=O)cc(Cl)n2)ncn1 (single isomer, unassigned) [Example 5, N-{6-Chloro-4-[(S-methylsulfonimidoyl)methyl]pyridin-2-yl}-6-(4-fluoro-2-methoxyphenyl)pyrimidin-4-amine] | 56 nM | 185 nM | 34 nM | – | –
COc1cc(F)ccc1-c1cc(Nc2cc(CS(C)(=N)=O)ccn2)ncn1 (single isomer, unassigned) [Example 3, 6-(4-Fluoro-2-methoxyphenyl)-N-{4-[(S-methylsulfonimidoyl)methyl]pyridin-2-yl}pyrimidin-4-amine] | 660 nM | – | – | – | 126 nM
COc1cc(F)ccc1-c1cc(Nc2cc(CS(C)(=N)=O)cc(C(F)(F)F)n2)ncn1 (racemic) [Example 10, (rac)-6-(4-Fluoro-2-methoxyphenyl)-N-{4-[(S-methylsulfonimidoyl)methyl]-6-(trifluoromethyl)pyridin-2-yl}pyrimidin-4-amine] | 63 nM | 135 nM | 32 nM | – | –
COc1cc(F)ccc1-c1cc(Nc2cc(CS(C)(=N)=O)cc(C)n2)ncn1 (single isomer, unassigned) [Example 9, 6-(4-Fluoro-2-methoxyphenyl)-N-{6-methyl-4-[(S-methylsulfonimidoyl)methyl]pyridin-2-yl}pyrimidin-4-amine] | 330 nM | – | – | 193 nM | 39 nM
COc1cc(F)ccc1-c1cc(Nc2cc(CS(C)(=N)=O)cc(C)n2)ncn1 (racemic) [Example 7, (rac)-6-(4-Fluoro-2-methoxyphenyl)-N-{6-methyl-4-[(S-methylsulfonimidoyl)methyl]pyridin-2-yl}pyrimidin-4-amine] | 280 nM | 375 nM | 35 nM | – | –
COc1cc(F)ccc1-c1cc(Nc2cc(CS(C)(=N)=O)ccn2)ncn1 (racemic) [Example 1, (rac)-6-(4-Fluoro-2-methoxyphenyl)-N-{4-[(S-methylsulfonimidoyl)methyl]pyridin-2-yl}pyrimidin-4-amine] | 600 nM | 638 nM | 60 nM | – | –
